Test results taken from article PMC7464559, “Synthesis, Optimization, Antifungal Activity, Selectivity, and CYP51 Binding of New 2-Aryl-3-azolyl-1-indolyl-propan-2-ols” (Pharmaceuticals, 2020).
Converted amounts (≈) assume the structure as drawn. “Also recorded” adds a separate entry of the source.

How the values were obtained:
[1] = system: CA98005 (Candida albicans); experiment: Anti-Candida in vitro assay, CA98005; format: cell-based; conditions: Candida albicans CA98005, mean of triplicate; read-out: MIC (IC80) CA98005
Method: (§1) Test fungal strains were obtained from the American Type Culture Collection (ATCC) or were clinical isolates from the Laboratory of Parasitology and Medical Mycology, Centre Hospitalier Universitaire (CHU) of Nantes. The strains were maintained on Sabouraud agar slants and were subcultured 24 h before used. The activity of the target compounds 8a–g and 11a–m was determined by the method previously described. Briefly, molecules were diluted in RPMI 1640 medium supplemented with 0.165 M morpholinopropanesulphonic acid (Sigma-Aldrich, Saint-Quentin Fallavier, France), 2% glucose, and antibiotics. Candida suspensions were prepared in RPMI 1640 medium (Sigma-Aldrich, Saint-Quentin Fallavier, France) adjusted to give a final concentration of 10^3 cells/mL, and a 96-well microplate (Nunc, D. Dutscher, Brumath, France) was seeded with 100 µL. Each concentration of molecules (100 µL) to be tested was added (in triplicate) and plates were incubated at 37 °C for 24 h. The cellular viability was evaluated on the Fluorolite 1000 (Dynatech, France) with an excitation at 550 nm and an emission at 590 nm after a 4 h incubation with 10 µL of Alamar Blue®. […] MIC was expressed as the mean of the triplicate values. KTC and FLC were used as standards.

C. albicans CA98001 = experiment: Anti-Candida in vitro assay (Alamar Blue), C. albicans CA98001; format: cell-based; conditions: for MIC: Candida albicans, CA98001, 24 h, MIC = IC80, 24 h at 37 °C, mean of triplicate; for Times more active than FLC against C. albicans CA98001: ratio of MIC values versus FLC
Method: as §1

[2] = target: T1, 17α-hydroxylase/17,20-lyase (CYP17) (Homo sapiens, UniProt P05093); experiment: In vitro inhibition of 17α-hydroxylase/17,20-lyase; format: biochemical; conditions: at 2.5 µM
T1 sequence (P05093 1-508): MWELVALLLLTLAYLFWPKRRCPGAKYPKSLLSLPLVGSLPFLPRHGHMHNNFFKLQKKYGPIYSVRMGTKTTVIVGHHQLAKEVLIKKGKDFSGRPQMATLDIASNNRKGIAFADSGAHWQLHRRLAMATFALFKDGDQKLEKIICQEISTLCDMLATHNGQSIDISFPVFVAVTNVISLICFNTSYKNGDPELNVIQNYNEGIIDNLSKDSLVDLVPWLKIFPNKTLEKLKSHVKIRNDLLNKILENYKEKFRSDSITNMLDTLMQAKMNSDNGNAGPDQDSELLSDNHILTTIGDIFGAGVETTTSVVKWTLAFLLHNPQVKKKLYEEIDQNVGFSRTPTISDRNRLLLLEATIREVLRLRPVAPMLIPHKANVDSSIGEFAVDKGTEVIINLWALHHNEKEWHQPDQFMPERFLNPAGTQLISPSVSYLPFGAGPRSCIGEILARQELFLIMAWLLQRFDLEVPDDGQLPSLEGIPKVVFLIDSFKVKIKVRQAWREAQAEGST
Method: The assay was performed similar to described methods [29, 52]. […] Microsomal protein was added to start the reaction. […] After the addition of 1 mL EtOAc, the vials were shaken then centrifuged. The organic phase was removed, vortexed with phosphate buffer (250 µL), 1 M aqueous HCl (50 µL), and then dried. Aliquots of 25 µL methanol, containing 250 pmol of fluorocortisol acetate as internal standard, were added to the extracts. The samples (20 µL) were submitted to HPLC (RP-8 column, methanol/water 1:1, v/v) and measured using UV (240 nm).

[3] = system: ATCC2091 Candida albicans strain; experiment: Anti-Candida in vitro assay, ATCC2091; format: cell-based; conditions: Candida albicans ATCC2091, mean of triplicate; read-out: MIC (IC80) ATCC2091
Method: as §1

[4] = system: CL98001 (Candida lusitaniae); experiment: Anti-Candida in vitro assay, CL98001; format: cell-based; conditions: Clavispora lusitaniae; Candida lusitaniae CL98001, mean of triplicate; read-out: MIC (IC80) CL98001
Method: as §1

CK98002 (Candida krusei) = experiment: Anti-Candida in vitro assay, CK98002; format: cell-based; conditions: Pichia kudriavzevii; Candida krusei CK98002, mean of triplicate; read-out: MIC (IC80) CK98002
Method: as §1

[5] = target: T2, aldosterone synthase (CYP11B2) (Homo sapiens, UniProt P19099); experiment: In vitro inhibition of CYP11B2 (Schizosaccharomyces pombe MB164); format: cell-based; conditions: inhibitor 100 nM to 5 µM, three to four independent experiments
T2 construct: expressed in transfected cells; host or cells: Schizosaccharomyces pombe strain MB164
T2 sequence (P19099 25-503): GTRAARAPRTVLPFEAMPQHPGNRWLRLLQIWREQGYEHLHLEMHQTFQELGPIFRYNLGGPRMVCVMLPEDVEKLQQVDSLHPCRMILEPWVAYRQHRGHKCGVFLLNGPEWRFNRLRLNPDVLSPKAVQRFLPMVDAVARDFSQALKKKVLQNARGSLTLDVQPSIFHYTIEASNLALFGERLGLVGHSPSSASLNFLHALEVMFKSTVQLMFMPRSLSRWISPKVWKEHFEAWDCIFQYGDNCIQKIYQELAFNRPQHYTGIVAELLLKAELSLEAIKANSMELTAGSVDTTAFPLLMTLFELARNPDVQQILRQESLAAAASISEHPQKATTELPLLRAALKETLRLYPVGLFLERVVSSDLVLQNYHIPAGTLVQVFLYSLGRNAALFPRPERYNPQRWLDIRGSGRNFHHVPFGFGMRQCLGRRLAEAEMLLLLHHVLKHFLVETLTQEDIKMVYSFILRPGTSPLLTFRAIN
Method: For the CYP11B1 assay, 11-deoxycortisol (RSS) was used as substrate, whereas 11-deoxycorticosterone (DOC) was used for the CYP11B2 assay. These non-radioactive steroids were purchased from Sima (Deisenhofen, Germany). Radioactive steroids were obtained from Amersham Pharmacia Biotech (Freiburg, Germany). Two Schizosaccharomyces pombe strains were used, SZ1 expressing CYP11B1 and MB164 expressing CYP11B2. The assays were performed as described previously by Bureik et al.. Exponentially growing fission yeast cells were cultivated by shaking and with good aeration at 30 °C in 500 µL Edinburgh Minimal Medium Glutamate (EMMG) containing supplements as required. Inhibitors were dissolved in ethanol at different concentrations, and equal volumes of ethanolic solutions were used in all cases (including controls). Final concentrations of inhibitors ranged from 100 nM to 5 µM. Cells were preincubated with the respective inhibitor solutions for 15 min prior to the addition of steroid substrates (100 nM DOC or 100 nM RSS, respectively). For detection of steroids, 1% of the total substrate amount was radioactively labeled as [^3H]RSS, [^3H]DOC, or [^14C]DOC. After 4 h (MB164) or 24 h (SZ1) cultures were extracted with chloroform and dried under vacuum. The residues were dissolved in 10 µL chloroform and spotted onto glass-backed silica-coated HPTLC plates (Kieselgel 60 F254, Merck; Darmstadt, Germany). In addition, small amounts of non-radioactive steroids were spotted as references. The HPTLC was developed twice in chloroform/methanol/water (300:20:1, v/v/v) and steroids identified after exposure to Fuji imaging plates and quantitated on a phosphoimager (BAS-2500, Fuji; Stamford, CT, USA).

| MIC [1] | MIC (C. albicans CA98001) | inhibition at […] [2] | MIC [3] | MIC [4] | MIC (CK98002 (Candida krusei)) | Compound | CYP11B2 inhibition effect [5] | Times more active than FLC against C. albicans CA98001 (C. albicans CA98001) |
| --- | --- | --- | --- | --- | --- | --- | --- | --- |
| 2.71 µg/mL (≈ 6.99 µM) | 0.023 µg/mL (≈ 0.0594 µM) | < 5% | 1.01 µg/mL (≈ 2.6 µM) | 9.68 µg/mL (≈ 25 µM) | 22.1 µg/mL (≈ 57 µM) | O[C@@](Cn1cncn1)(Cn1ccc2ccccc21)c1ccc(Cl)cc1Cl [(+)-(R)-8g] | slight inhibitory effect; also recorded: slight inhibition | – |
| 0.026 µg/mL (≈ 0.0671 µM) | 0.000256 µg/mL (≈ 0.000661 µM) | < 5% | < 0.039 µg/mL | 0.024 µg/mL (≈ 0.062 µM) | 0.022 µg/mL (≈ 0.0568 µM) | O[C@](Cn1cncn1)(Cn1ccc2ccccc21)c1ccc(Cl)cc1Cl [(−)-(S)-8g] | no inhibition | ≈ 80 |
| < 0.004 µg/mL | 0.000259 µg/mL (≈ 0.000669 µM) | < 10% | < 0.004 µg/mL | < 0.004 µg/mL | 2.79 µg/mL (≈ 7.2 µM) | OC(Cn1cncn1)(Cn1ccc2ccccc21)c1ccc(Cl)cc1Cl (centres unmarked) [Compound 8g, 2-(2,4-Dichlorophenyl)-3-(1H-indol-1-yl)-1-(1H-1,2,4-triazol-1-yl)-propan-2-ol] | slight inhibitory effect; also recorded: slight inhibition | ≈ 80 |
